Values quoted from earlier work in patent publication US20200376001A1, “USE OF ANDROGEN FOR TREATING GASTROINTESTINAL DISORDERS” (priority 2012, published 2020).
Where two headings read alike, the source gives them in different places.

Columns and labels:
[1] = tested on: Sex Hormone Binding Globulin (SHBG); conditions: for decrease of SHBG (serum concentration): serum SHBG in the body after administration of synthetic androgen
[2] = compared with danazol
[3] = biological target: T1, Sex Hormone Binding Globulin (SHBG) (Homo sapiens, UniProt P04278); conditions: greater than that of testosterone
T1 sequence (P04278 30-402): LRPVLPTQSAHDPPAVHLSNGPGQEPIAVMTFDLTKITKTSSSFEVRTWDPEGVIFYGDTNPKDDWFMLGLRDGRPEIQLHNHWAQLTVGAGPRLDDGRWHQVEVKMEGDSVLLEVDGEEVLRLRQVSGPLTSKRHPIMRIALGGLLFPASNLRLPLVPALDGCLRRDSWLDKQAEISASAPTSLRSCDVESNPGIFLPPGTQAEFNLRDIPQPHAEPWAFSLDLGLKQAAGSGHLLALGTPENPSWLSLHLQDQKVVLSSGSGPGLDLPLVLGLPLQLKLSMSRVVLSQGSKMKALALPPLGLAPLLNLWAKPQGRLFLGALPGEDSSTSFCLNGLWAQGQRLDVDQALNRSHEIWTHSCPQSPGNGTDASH

| SMILES | potency mg for mg relative to danazol ([1]; SHBG reduction, relative to danazol) [times] | decrease of SHBG (serum concentration) [1] [%] | side effects and hirsutism [2] | affinity for SHBG relative to testosterone [3] | decrease of SHBG (serum concentration) ([1]; listed as Danazol) |
| --- | --- | --- | --- | --- | --- |
| C[C@]12Cc3c[nH]nc3C[C@@H]1CC[C@@H]1[C@@H]2CC[C@@]2(C)[C@H]1CC[C@]2(C)O [stanozolol] | 100 | 80 | reduces side effects and hirsutism caused by danazol | – | – |
| C[C@]12CC[C@H]3[C@@H](CCC4=CC(=O)CC[C@@H]43)[C@@H]1CC[C@@H]2O [Nandrolone, nandrolone] | – | – | – | about three | – |
| C#C[C@]1(O)CC[C@H]2[C@@H]3CCC4=Cc5oncc5C[C@]4(C)[C@H]3CC[C@@]21C [danazol] | – | 80 | – | – | does this as well |
